Experimental findings from patent US6376212B1, “Polypeptide compounds and nucleotide sequences promoting resistance to eutypa dieback in plants” (Societe des Domaines Viticoles Martell, priority 1997, dated 2002) are described below.

Data set [1] addresses T1, protein encoded in the VRER gene (Vigna radiata, UniProt Q9SQK0).
T1 sequence (Q9SQK0 1-325): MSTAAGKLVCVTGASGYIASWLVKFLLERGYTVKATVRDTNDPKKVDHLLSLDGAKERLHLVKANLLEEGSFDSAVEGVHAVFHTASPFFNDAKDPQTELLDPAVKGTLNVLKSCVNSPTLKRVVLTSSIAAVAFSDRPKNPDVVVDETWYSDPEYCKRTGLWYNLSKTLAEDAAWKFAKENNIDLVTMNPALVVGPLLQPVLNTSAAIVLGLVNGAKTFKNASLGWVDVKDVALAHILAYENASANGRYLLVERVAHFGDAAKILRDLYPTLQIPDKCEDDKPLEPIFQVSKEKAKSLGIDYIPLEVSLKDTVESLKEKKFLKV
Briefly: Biochemical characteristics of the protein encoded in the VRER gene (substrate reduction with NADPH). Conditions: in the presence of NADPH. The source says: The protein encoded in the VRER gene was characterized biochemically. […] It was also investigated whether this protein was capable of reducing other substrates.

The subject of data set [2] is transformed (UBT) calluses of Vitis vinifera cv Ugni blanc. The experiment in a line: Biotest II: development of calluses in the presence of eutypine. It is filed as cell-based. Here is the method:
(§1) The transformation experiments were also performed on calluses of Vitis vinifera cv Ugni blanc by making use of the same experimental protocol as that used for the transformation of the calluses of Vitis vinifera cv. Gamay.
(§2) The analysis of the behaviour of the calluses of Vitis vinifera cv Ugni blanc towards eutypine was performed by using biotest II.

For data set [3], the system named is untransformed (UBWT) calluses of Vitis vinifera cv Ugni blanc. The data set is described as above. It is filed as cell-based. Here is the method: as §1, §2
A short description of data set [4]: Viability of leaf protoplasts cultured with eutypine or eutypinol. Type of data set: cell-based, Vitis vinifera. Conditions: Vitis vinifera, protoplasts 4.5×10^5/ml, 48 hours, read-out: Viability after 48 hours. As to the method: (§3) The protoplasts (4.5×10^5/ml) are cultured in the presence of eutypine or eutypinol for 48 hours.
Data set [5] concerns grapevine vitroplants. Briefly: Application of eutypine to grapevine vitroplants. Type of data set: in vivo.
Data set [6] has as its system transformed calluses (GA). Briefly: Biotest II: growth of calluses on media containing eutypine. The following applies: 500 μM of eutypine; GA variety.
In data set [7] the test system is protoplasts obtained from grapevine leaves. Briefly: Tolerance of leaf protoplasts to eutypine. Type of data set: cell-based. Conditions: Cabernet Sauvignon protoplasts compared with Merlot protoplasts. The source says:
the eutypine applied to simplified biological systems causes more serious symptoms in the varieties sensitive to eutypa dieback than in varieties of grapevines tolerant to this disease.

In data set [8] the test system is grapevine cells. Briefly: Consumption of oxygen of grapevine cells. Type of data set: cell-based. Conditions: activation at low dose. Here is the method:
Eutypine affects the functioning of the membrane systems of the grapevine cells. It causes the acidification of the cytoplasm, the reduction of leucine transport, the activation at low dose of the consumption of oxygen and its inhibition above 160 μM, and a diminution of the energy load of the cells.

In data set [9] the test system is mitochondria. The experiment in a line: Decoupling of oxidative phosphorylation in mitochondria. It is filed as biochemical. As to the method:
The mode of action of eutypine was confirmed by investigating its effects on the functioning of mitochondria. Eutypine acts as a decoupling agent of oxidative phosphorylation. The complete decoupling of the mitochondria is attained at concentrations of eutypine close to 150 μM.

Data set [10] has as its system grapevine cells. Briefly: Penetration of eutypine into grapevine cells. It is filed as cell-based. From the text: The investigation of the mode of action of eutypine in the grapevine cells was made possible owing to the availability of eutypine in the unlabelled form and in the radioactive form, labelled with carbon 14.
This toxic molecule then accumulates in the cytoplasm by an acid trapping mechanism and, owing to its lipophilic character, inserts itself into the lipids of the membranes.

The test system of data set [11] is protoplasts of Ugni blanc. Briefly: Degradation of eutypine by protoplasts (detoxification activity). Type of data set: in vitro ADME, Vitis vinifera. The following applies: Ugni blanc (very sensitive); eutypine 100 μM, 1 hour, 30° C. Here is the method:
(§4) The protoplasts (10^6/ml) obtained from leaves of vitroplants are incubated for 1 hour at 30° C. in the presence of eutypine (100 μM; 0.4 kBq). Then, the phenylacetylenic compounds are extracted, separated by thin layer chromatography and the metabolic rate of eutypine is calculated after determination of the radioactivity associated with eutypine and eutypinol.

Data set [12] relates to protoplasts of Cabernet Sauvignon. The data set is described as above. It is filed as in vitro ADME, Vitis vinifera. Conditions: Cabernet Sauvignon (sensitive); eutypine 100 μM, 1 hour, 30° C. As to the method: as §4
For data set [13], the system named is protoplasts of Merlot. Described as above. It is filed as in vitro ADME, Vitis vinifera. The following applies: Merlot (tolerant); eutypine 100 μM, 1 hour, 30° C. Here is the method:
as §4

Data set [14] has as its system untransformed calluses (GWT). The experiment in a line: Biotest II: growth of calluses on media containing eutypine. The following applies: 500 μM of eutypine; wildtype calluses.
The subject of data set [15] is transformed (GA, GB, GC, GD) grapevine cells. Briefly: Biotest I: mortality of grapevine cells in suspension with eutypine (erythrosine). Type of data set: cell-based, Vitis vinifera cv Gamay. Here is the method:
(§5) In the biotest I, the percentage of dead cells was estimated by means of the erythrosine reagent. The concentration of eutypine inducing a percentage of dead cells of 50% is determined in the wildtype strain and in the transformed varieties.

The test system of data set [16] is untransformed (GWT) grapevine cells. The data set is described as above. Type of data set: cell-based, Vitis vinifera cv Gamay. The following applies: GWT wildtype. Here is the method: as §5
Data set [17] deals with protoplasts obtained from leaves of vitroplants of Vitis vinifera cv. Cabernet Sauvignon. The experiment in a line: Viability of leaf protoplasts cultured with eutypine or eutypinol. Type of data set: cell-based. Conditions: for Viability after 48 hours: protoplasts 4.5×10^5/ml. As to the method: as §3
Data set [18] relates to eutypine reductase. Briefly: Conversion of eutypine to eutypinol: effect of reductase inhibitors. It is filed as biochemical, grapevine. The source says:
The conversion of eutypine to eutypinol is catalyzed by a non-membrane enzyme, which specifically requires NADPH as co-factor. Its activity is reduced by reductase inhibitors such as disulfiram and parahydroxymercuribenzoic acid, confirming its membership of this group of enzymes. It has been called “eutypine reductase”. The reaction scheme is shown below. [drawing 2]

Data set [19] is described as follows: Reduction of eutypine by lysate of E. coli overexpressing the VRER protein. Conditions: NADPH, radioactive eutypine, thin layer chromatography. It is filed as biochemical, Vigna radiata. From the text:
For that, the complementary DNA of the VRER gene was cloned in an expression vector, then transferred into the bacteria. The lysate of these bacteria which overexpress the protein corresponding to the VRER gene uses the co-factor NADPH to reduce eutypine.

As for 2-fluoraldehyde, the “reduction by the ER protein” value in [1] is “reduced”.
Same read-out and setting: the value for `O=Cc1ccncc1` [4-pyridine carbaldehyde] was “reduced”.
Take `C=C(C)C#Cc1cc(C=O)ccc1O` [Eutypine, 4-hydroxy-3-(3-methylbut-3-en-1-ynyl) benzaldehyde]: the “Mean mass of a callus” value was found to be 150 mg in data set [2] (500 μM of eutypine, UBT) and 25 mg in data set [3] (500 μM of eutypine, UBWT). Also, the “growth of the calluses” value in data set [2] (500 μM, transformed UB variety) was “practically unaffected”. Further, the development of calluses in data set [3] (500 μM, wildtype variety) is “necrose rapidly and do not develop”; in data set [6], “does not exhibit necroses”; in [14] it was “do not develop”. For the same molecule, the viability at 48 h, 100 µM in data set [4] (100 μM) amounted to 67%. Further, in [4] (200 μM), the viability at 48 h, 200 µM came to 0%. For the same molecule, the “symptoms of the disease” value in data set [5] (applied to grapevine vitroplants) is “reproduces certain symptoms of the disease”. Also, in data set [5] (leaves of vitroplants), the “ultrastructural alterations in the leaves” value was “induces ultrastructural alterations”. The “tolerance of protoplasts to eutypine” value in data set [7] was “lower tolerance”. In addition, the “concentration for inhibition of the consumption of oxygen” value in data set [8] is “above 160 μM”. Further, in data set [9], the “concentration for complete decoupling of the mitochondria” value is roughly 150 µM. The “penetration into the grapevine cells” value in [10] is “passive diffusion”. The Detoxification activity was determined as 7.9 pmol/min/10^5 cells in data set [11], 10.1 pmol/min/10^5 cells in [12] and 13.6 pmol/min/10^5 cells in [13]. Besides, the “LD50 (eutypine concentration causing the mortality of 50%)” value was 255 µM in data set [15] (GA transformed cells in suspension); 250 µM in [15] (GB transformed cells in suspension); 230 µM in data set [15] (GC transformed cells in suspension); 225 µM in [15] (GD transformed cells in suspension); 100 µM in [16].
As to `C=C(C)C#Cc1cc(CO)ccc1O` [Eutypinol, 4-hydroxy-3-(3-methylbut-3-en-1-ynyl) benzylic alcohol], the “Viability after 48 hours” value in data set [17] (200 μM) is on record as 86; in [17] (500 μM) it was 83. Further, the “toxicity to the grapevine” value in data set [17] (even at high concentrations) is reported as “does not show toxicity”.
Take `O=Cc1ccccc1` [benzaldehyde]: in data set [1], the “reduction by the ER protein” value is given as “reduced”.
Still for that read-out and setting: the value for `CCCCCCCCCC=O` [decylaldehyde] was “reduced”; that for `CCCCCC=O` [hexanal] was “reduced”.
As for `O=C(O)c1cc[c]([Hg][OH])cc1` [parahydroxymercuribenzoic acid], the “activity of eutypine reductase in the presence of reductase inhibitor” value in data set [18] is reported as “reduced”.

B1: protein corresponding to the VRER gene: polypeptide of 325 amino acids from Vigna radiata with eutypine reductase activity, SEQ ID NO. 4 (protein)
chain: T1 sequence (Q9SQK0 1-325)
Regarding B1, in data set [19], the eutypine reductase activity entry is “exhibits a “eutypine reductase” activity in vitro”.

As usually defined, the viability is a read-out of living cells in per cent, often relative to untreated cells.
